Reference: ChEMBL document CHEMBL1201862, “PubChem BioAssay data set” (2004)
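The compound was tested at five concentrations on cells cultured in 96-well plates, with a 48-hour exposure period. GI50: concentration for 50% inhibition of growth.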 The source made the active and inactive calls. Rule as the data show it: active = GI50 up to about 1.1 µM and inactive = higher.

What was measured:
Assay in all cases: growth of human tumour cells (NCI), 48 h
A498 = test system: A498
A549 = test system: A549
BT-549 = test system: BT-549
CAKI-1 = test system: CAKI-1
CCRF-CEM = test system: CCRF-CEM
COLO 205 = test system: COLO 205
EKVX = test system: EKVX
HCC 2998 = test system: HCC 2998
HOP-92 = test system: HOP-92
HT-29 = test system: HT-29
Hs-578T = test system: Hs-578T
IGROV-1 = test system: IGROV-1
KM12 = test system: KM12
MCF7 = test system: MCF7
MDA-MB-231 = test system: MDA-MB-231
MDA-MB-435 = test system: MDA-MB-435
MDA-N = test system: MDA-N
Malme-3M = test system: Malme-3M
NCI-H226 = test system: NCI-H226
OVCAR-3 = test system: OVCAR-3
OVCAR-4 = test system: OVCAR-4
OVCAR-5 = test system: OVCAR-5
PC-3 = test system: PC-3
SF-268 = test system: SF-268
SF-539 = test system: SF-539
SK-MEL-2 = test system: SK-MEL-2
SK-MEL-5 = test system: SK-MEL-5
SK-OV-3 = test system: SK-OV-3
SN12C = test system: SN12C
SNB-19 = test system: SNB-19
SNB-75 = test system: SNB-75
TK-10 = test system: TK-10
U-251 = test system: U-251
UACC-257 = test system: UACC-257
786-0 = test system: 786-0
ACHN = test system: ACHN
DU-145 = test system: DU-145
HCT-116 = test system: HCT-116
HCT-15 = test system: HCT-15
HL-60 = test system: HL-60
HOP-62 = test system: HOP-62
K562 = test system: K562
LOX IMVI = test system: LOX IMVI
M14 = test system: M14
MOLT-4 = test system: MOLT-4
NCI-H23 = test system: NCI-H23
NCI-H460 = test system: NCI-H460
NCI-H522 = test system: NCI-H522
NCI/ADR-RES = test system: NCI/ADR-RES
OVCAR-8 = test system: OVCAR-8
RPMI-8226 = test system: RPMI-8226
RXF 393 = test system: RXF 393
SF-295 = test system: SF-295
SK-MEL-28 = test system: SK-MEL-28
SW-620 = test system: SW-620
T47D = test system: T47D
UACC-62 = test system: UACC-62
UO-31 = test system: UO-31

With C[C@]12CC[C@@H]3c4cc(OCC(F)(F)F)c(O)cc4/C(=N/O)C[C@H]3[C@@H]1CC[C@@H]2O the GI50 (A498) was 0.0977 µM (active), the GI50 (A549) was 0.0372 µM (active) and the GI50 (BT-549) was < 0.01 µM (active). For the same compound, the GI50 (CAKI-1) was 0.0468 µM (active), the GI50 (CCRF-CEM) was < 0.0163 µM (active) and the GI50 (COLO 205) was 16 µM (inactive). The GI50 (EKVX) was 0.23 µM (active), the GI50 (HCC 2998) was 2.82 µM (inactive) and the GI50 (HOP-92) was 0.33 µM (active). The GI50 (HT-29) was 3.62 µM (inactive), the GI50 (Hs-578T) was 0.0215 µM (active) and the GI50 (IGROV-1) was 0.147 µM (active). For the same compound, the GI50 (KM12) was 0.537 µM (active), the GI50 (MCF7) was 0.0247 µM (active) and the GI50 (MDA-MB-231) was 0.0592 µM (active). The GI50 (MDA-MB-435) was < 0.0126 µM (active), the GI50 (MDA-N) was 0.011 µM (active) and the GI50 (Malme-3M) was 0.0299 µM (active). For the same compound, the GI50 (NCI-H226) was 0.27 µM (active), the GI50 (OVCAR-3) was 0.0156 µM (active) and the GI50 (OVCAR-4) was 7 µM (inactive). For the same compound, the GI50 (OVCAR-5) was 12.9 µM (inactive), the GI50 (PC-3) was 2.56 µM (inactive) and the GI50 (SF-268) was 0.0484 µM (active). The GI50 (SF-539) was 0.0188 µM (active), the GI50 (SK-MEL-2) was 0.0351 µM (active) and the GI50 (SK-MEL-5) was 0.0232 µM (active). For the same compound, the GI50 (SK-OV-3) was 0.0384 µM (active), the GI50 (SN12C) was 0.0873 µM (active) and the GI50 (SNB-19) was 0.025 µM (active). For the same compound, the GI50 (SNB-75) was < 0.01 µM (active), the GI50 (TK-10) was 23.7 µM (inactive) and the GI50 (U-251) was 0.026 µM (active). The GI50 (UACC-257) was 0.0509 µM (active).
COc1ccc(N[C@H](C[S+]([O-])c2ccc(C)cc2)C(F)(F)C(F)(F)F)cc1 (some centres undefined) was tested, and the GI50 (786-0) was 65.8 µM (inactive), the GI50 (A498) was > 100 µM (inactive) and the GI50 (A549) was 99.5 µM (inactive). For the same compound, the GI50 (ACHN) was > 100 µM (inactive), the GI50 (BT-549) was 85.1 µM (inactive) and the GI50 (CAKI-1) was > 100 µM (inactive). For the same compound, the GI50 (CCRF-CEM) was > 100 µM (inactive), the GI50 (COLO 205) was > 100 µM (inactive) and the GI50 (DU-145) was > 100 µM (inactive). For the same compound, the GI50 (EKVX) was 65.2 µM (inactive), the GI50 (HCC 2998) was > 100 µM (inactive) and the GI50 (HCT-116) was 52.4 µM (inactive). The GI50 (HCT-15) was over 100 µM, the GI50 (HL-60) was > 100 µM (inactive) and the GI50 (HOP-62) was 57.5 µM (inactive). For the same compound, the GI50 (HOP-92) was 26.1 µM (inactive), the GI50 (HT-29) was > 100 µM (inactive) and the GI50 (Hs-578T) was 36.6 µM (inactive). For the same compound, the GI50 (IGROV-1) was > 100 µM (inactive), the GI50 (K562) was > 100 µM (inactive) and the GI50 (KM12) was > 100 µM (inactive). For the same compound, the GI50 (LOX IMVI) was 91.4 µM (inactive), the GI50 (M14) was 97.3 µM (inactive) and the GI50 (MCF7) was > 100 µM (inactive). The GI50 (MDA-MB-435) was > 100 µM (inactive), the GI50 (MDA-N) was > 100 µM (inactive) and the GI50 (MOLT-4) was > 100 µM (inactive). For the same compound, the GI50 (Malme-3M) was > 100 µM (inactive), the GI50 (NCI-H226) was 31 µM (inactive) and the GI50 (NCI-H23) was 43.5 µM (inactive). For the same compound, the GI50 (NCI-H460) was > 100 µM (inactive), the GI50 (NCI-H522) was 71.4 µM (inactive) and the GI50 (NCI/ADR-RES) was > 100 µM (inactive). For the same compound, the GI50 (OVCAR-3) was > 100 µM (inactive), the GI50 (OVCAR-4) was 95.7 µM (inactive) and the GI50 (OVCAR-5) was > 100 µM (inactive). For the same compound, the GI50 (OVCAR-8) was 90.6 µM (inactive), the GI50 (RPMI-8226) was > 100 µM (inactive) and the GI50 (RXF 393) was 4.21 µM (inactive). For the same compound, the GI50 (SF-268) was 52.8 µM (inactive), the GI50 (SF-295) was 62.4 µM (inactive) and the GI50 (SF-539) was 64.6 µM (inactive). The GI50 (SK-MEL-28) was > 100 µM (inactive), the GI50 (SK-MEL-5) was 68.1 µM (inactive) and the GI50 (SK-OV-3) was 44.1 µM (inactive). The GI50 (SN12C) was > 100 µM (inactive), the GI50 (SNB-19) was 35.8 µM (inactive) and the GI50 (SNB-75) was 21 µM (inactive). The GI50 (SW-620) was > 100 µM (inactive), the GI50 (T47D) was 14.1 µM (inactive) and the GI50 (TK-10) was > 100 µM (inactive). The GI50 (U-251) was 37.4 µM (inactive), the GI50 (UACC-257) was > 100 µM (inactive) and the GI50 (UACC-62) was 43 µM (inactive). The GI50 (UO-31) was > 100 µM (inactive).
